From patent publication US20230203060A1 (GENFLEET THERAPEUTICS (SHANGHAI) INC., priority 2020, published 2023)
pIC50: −log10 of the molar value.

Experiments:
Type in all cases: cell-based, human
[1] = tested on: KRAS G12C mutant NCI-H358 cells; experiment: Cell proliferation inhibition experiment, 3D spheroid, CellTiter-Glo, NCI-H358; settings: Homo sapiens, NCI-H358, 120 h, NCI-H358 (KRAS G12C mutant) 3D spheroid, 5 days with compound, CellTiter-Glo; read-out: H358 IC50
Procedure, shortened: (§1)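 Luminescence (CellTiter-Glo, 30 min incubation) was read after 5 days of compound treatment of overnight-formed spheroids of 800 H358 or 400 A549 cells in 2% FBS medium. Inhibition relative to DMSO and blank controls was fitted with a four-parameter model to yield IC50.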

[2] = tested on: A549 cells (KRAS G12S mutant); experiment: Cell proliferation inhibition experiment, 3D spheroid, CellTiter-Glo, A549; settings: Homo sapiens, A549, 120 h, A549 (KRAS G12S mutant) 3D spheroid, 5 days with compound, CellTiter-Glo; read-out: A549 IC50
Procedure, shortened: as §1

[3] = tested on: KRAS G12C mutant MIA PaCa-2 cells; experiment: Cell proliferation inhibition experiment, 3D spheroid, CellTiter-Glo, MIA PaCa-2; settings: Homo sapiens, MIA PaCa-2, 120 h, 3D cell model in 384-well spheroid plate, 5 days, CellTiter-Glo; read-out: MIA-PaCa2 IC50
Procedure, shortened: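 200 MIA PaCa-2 cells/well grown overnight as 3D spheroids, then exposed to 3.16-fold compound dilutions (0.1% DMSO final) for 5 days. Viability read by CellTiter-Glo luminescence; inhibition calculated against DMSO and medium-only controls, and IC50 fitted by four-parameter model.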

Row | pIC50 [1] | pIC50 [2] | pIC50 [3] | Structure (SMILES)
1 | 8.40 | 5.58 | 7.88 | C=CC(=O)N1CCN2C(=O)c3c(N4CC(NC)CC4(C)C)nc(-c4ccccc4F)c(Cl)c3OC[C@H]2C1 (stereo partly drawn) [Z661, (6aR)-8-acryloyl-4-chloro-1-(2,2-dimethyl-4-(methylamino)pyrrolidin-1-yl)-3-(2-fluorophenyl)-6,6a,7,8,9,10-hexahydro-12H-pyrazino[2,1-c]pyrido[3,4-f][1,4]oxazepin-12-one]
2 | 7.53 |  |  | C=CC(=O)N1CCN2C(=O)c3c(N4CC[C@@H](N(C)C)C4(C)C)nc(-c4ccccc4F)c(Cl)c3OC[C@H]2C1 [Z502-1, (6aR)-8-acryloyl-4-chloro-1-(3-(dimethylamino)-2,2-dimethylpyrrolidin-1-yl)-3-(2-fluorophenyl)-6,6a,7,8,9,10-hexahydro-12H-pyrazino[2,1-c]pyrido[3,4-f][1,4]oxazepin-12(6aH)-one]
3 | 8.77 | 5.49 | 8.11 | C=CC(=O)N1CCN2C(=O)c3c(N4C[C@@H](N(C)CCF)CC4(C)C)nc(-c4ccccc4F)c(Cl)c3OC[C@H]2C1 (single isomer, unassigned) [Z660-1]
4 | 8.15 | 5.53 |  | C=CC(=O)N1CCN2C(=O)c3c(N4C[C@H](N5CCN(C)CC5)CC4(C)C)nc(-c4c(F)cccc4Cl)c(Cl)c3OC[C@H]2C1 (single isomer, unassigned) [Z635-2]
5 | 8.70 | 5.39 | 8.00 | C=CC(=O)N1CCN2C(=O)c3c(N4CC(N(C)CC(F)(F)F)CC4(C)C)nc(-c4ccccc4F)c(Cl)c3OC[C@H]2C1 (mixture of isomers) [Z491a, (6aR)-8-acryloyl-4-chloro-1-(2,2-dimethyl-4-(methyl(2,2,2-trifluoroethyl)amino)pyrrolidin-1-yl)-3-(2-fluorophenyl)-6,6a,7,8,9,10-hexahydro-12H-pyrazino[2,1-c]pyrido[3,4-f][1,4]oxazepin-12-one]
6 | 8.02 |  | 8.15 | C=CC(=O)N1CCN2C(=O)c3c(N4CCN(C)C[C@@H]4C)nc(-c4c(N)cccc4F)c(Cl)c3OC[C@H]2C1 [Z503, (6aR)-8-acryloyl-3-(2-amino-6-fluorophenyl)-4-chloro-1-((S)-2,4-dimethylpiperazin-1-yl)-6,6a,7,8,9,10-hexahydro-12H-pyrazino[2,1-c]pyrido[3,4-f][1,4]oxazepin-12-one]
7 | 9.00 | 5.53 |  | C=CC(=O)N1CCN2C(=O)c3c(N4C[C@@H](N(C)CCO)CC4(C)C)nc(-c4ccccc4F)c(Cl)c3OC[C@H]2C1 (single isomer, unassigned) [Z658-1]
8 | 9.10 | 5.64 |  | C=CC(=O)N1CCN2C(=O)c3c(N4C[C@@H](N5CCN(C)CC5)CC4(C)C)nc(-c4c(F)cccc4Cl)c(Cl)c3OC[C@H]2C1 (single isomer, unassigned) [Z635-1]

Further lines, the molecule ahead of its results:

Row | Structure (SMILES) | pIC50 [1] | pIC50 [2] | pIC50 [3]
9 | C=CC(=O)N1CCN2C(=O)c3c(N4C[C@H](N5CCC5)CC4(C)C)nc(-c4ccccc4F)c(Cl)c3OC[C@H]2C1 (single isomer, unassigned) [Z471-2] | 7.04 |  | 
10 | C=CC(=O)N1CCN2C(=O)c3c(N[C@H](C)c4ccccc4)nc(-c4c(O)cccc4F)c(Cl)c3OC[C@H]2C1 [Z28, (6aR)-8-acryloyl-4-chloro-3-(2-fluoro-6-hydroxyphenyl)-1-(((R)-1-phenylethyl)amino)-6,6a,7,8,9,10-hexahydro-12H-pyrazino[2,1-c]pyrido[3,4-f][1,4]oxazepin-12-one] | 7.21 | < 5.30 | 6.82
11 | C=CC(=O)N1CCN2C(=O)c3c(N4CCN(C)[C@@H](C)[C@H]4C)nc(-c4ccccc4F)c(Cl)c3OC[C@H]2C1 (single isomer, unassigned) [Z465-1] | 7.89 |  | 
12 | C=CC(=O)N1CCN2C(=O)c3c(N4C[C@@H](O)CC4(C)C)nc(-c4c(N)cccc4F)c(F)c3OC[C@H]2C1 [Z481, (6aR)-8-acryloyl-3-(2-amino-6-fluorophenyl)-4-fluoro-1-((S)-4-hydroxy-2,2-dimethylpyrrolidin-1-yl)-6,6a,7,8,9,10-hexahydro-12H-pyrazino[2,1-c]pyrido[3,4-f][1,4]oxazepin-12-one] | 8.49 |  | 8.40
13 | C=CC(=O)N1CCN2C(=O)c3c(N4C[C@H](N5CCN(C)CC5)C[C@@H]4C)nc(-c4ccccc4F)c(Cl)c3OC[C@H]2C1 [Z470-1] | 7.64 |  | 7.37
14 | C=CC(=O)N1CCN2C(=O)c3c(N4C[C@@H](N(C)C)CC4(C)C)nc(-c4cccc(F)c4F)c(Cl)c3OC[C@H]2C1 [Z473-1, (R)-8-acryloyl-4-chloro-3-(2,3-difluorophenyl)-1-((S)-4-(dimethylamino)-2,2-dimethylpyrrolidin-1-yl)-6,6a,7,8,9,10-hexahydro-12H-pyrazino[2,1-c]pyrido[3,4-f][1,4]oxazepin-12-one] | 7.66 |  | 
15 | C=CC(=O)N1CCN2C(=O)c3c(N4CCN(C)C[C@@H]4C)nc(C#CC)c(Cl)c3OC[C@H]2C1 [Z459, (R)-8-acryloyl-4-chloro-1-((S)-2,4-dimethylpiperazin-1-yl)-3-(prop-1-yn-1-yl)-6,6a,7,8,9,10-hexahydro-12H-pyrazino[2,1-c]pyrido[3,4-f][1,4]oxazepin-12-one] | 6.04 |  | < 6.00
16 | C=CC(=O)N1CCN2C(=O)c3c(N4CCN(C(=O)CC)C[C@@H]4C)nc(-c4ccccc4F)c(Cl)c3OC[C@H]2C1 [Z477, (R)-8-acryloyl-4-chloro-3-(2-fluorophenyl)-1-((S)-2-methyl-4-propionylpiperazin-1-yl)-6,6a,7,8,9,10-hexahydro-12H-pyrazino[2,1-c]pyrido[3,4-f][1,4]oxazepin-12(6aH)-one] | 8.09 |  | 
17 | C=CC(=O)N1CCN2C(=O)c3c(N4C[C@@H](C)N(C)C[C@@H]4C)nc(-c4ccccc4F)c(Cl)c3OC[C@H]2C1 [Z464] | 6.84 |  | 6.75
18 | C=CC(=O)N1CCN2C(=O)c3c(N4CC(N5CCN(C)CC5)CC4(C)C)nc(-c4c(O)cccc4F)c(Cl)c3OC[C@H]2C1 (stereo partly drawn) [Z467, (6aR)-8-acryloyl-4-chloro-1-(2,2-dimethyl-4-(4-methylpiperazin-1-yl)pyrrolidin-1-yl)-3-(2-fluoro-6-hydroxyphenyl)-6,6a,7,8,9,10-hexahydro-12H-pyrazino[2,1-c]pyrido[3,4-f][1,4]oxazepin-12-one] | 9.10 |  | 9.00
19 | C=CC(=O)N1CCN2C(=O)c3c(N4CC(N(C)C)CC4(C)C)nc(-c4cccc(F)c4F)c(Cl)c3OC[C@H]2C1 (single isomer, unassigned) [Z473-2] | 7.92 |  | 7.35
20 | C=CC(=O)N1CCN2C(=O)c3c(N4CCN(C)C[C@@H]4C)nc(-c4ccccc4Cl)c(Cl)c3OC[C@H]2C1 [Z461, (R)-8-acryloyl-4-chloro-3-(2-chlorophenyl)-1-((S)-2,4-dimethylpiperazin-1-yl)-6,6a,7,8,9,10-hexahydro-12H-pyrazino[2,1-c]pyrido[3,4-f][1,4]oxazepin-12-one] | 7.62 |  | 7.48
21 | C=CC(=O)N1CCN2C(=O)c3c(N4C[C@@H](N5CC(OC)C5)CC4(C)C)nc(-c4ccccc4F)c(Cl)c3OC[C@H]2C1 [Z479-1, (R)-8-acryloyl-4-chloro-3-(2-fluorophenyl)-1-((S)-4-(3-methoxyazetidin-1-yl)-2,2-dimethylpyrrolidin-1-yl)-6,6a,7,8,9,10-hexahydro-12H-pyrazino[2,1-c]pyrido[3,4-f][1,4]oxazepin-12-one] | 8.24 |  | 7.82
